Experimental data from patent US12435061B2 (priority 2020, dated 2025).
pIC50: −log10 of the molar value. Structures can show the parent of a compound that is named as a salt. Where two headings read alike, the source gives them in different places.

Biological target: hTRPV3 (Homo sapiens (Human), UniProt Q8NET8)
Assay: Whole-cell patch clamp, hTRPV3 Phase 1 / Phase 2 currents
Format: cell-based
Details: for IC50: human TRPV3; for pIC50: inward, whole-cell patch clamp
How it was run: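 Currents are activated by 20 μM 2-APB or by perfusate at 28 °C or warmer, in Ringer's solution, and quantified at ±80 mV.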

[1] = Phase 1 current, read-out: hTRPV3 (nM) Phase 1
[2] = Phase 1 current, read-out: hTRPV3 Patch P1 Inwd
[3] = Phase 2 current, read-out: hTRPV3 (nM) Phase 2
[4] = Phase 2 current, read-out: hTRPV3 Patch P2 Inwd

hTRPV3, sequence (Q8NET8 whole entry): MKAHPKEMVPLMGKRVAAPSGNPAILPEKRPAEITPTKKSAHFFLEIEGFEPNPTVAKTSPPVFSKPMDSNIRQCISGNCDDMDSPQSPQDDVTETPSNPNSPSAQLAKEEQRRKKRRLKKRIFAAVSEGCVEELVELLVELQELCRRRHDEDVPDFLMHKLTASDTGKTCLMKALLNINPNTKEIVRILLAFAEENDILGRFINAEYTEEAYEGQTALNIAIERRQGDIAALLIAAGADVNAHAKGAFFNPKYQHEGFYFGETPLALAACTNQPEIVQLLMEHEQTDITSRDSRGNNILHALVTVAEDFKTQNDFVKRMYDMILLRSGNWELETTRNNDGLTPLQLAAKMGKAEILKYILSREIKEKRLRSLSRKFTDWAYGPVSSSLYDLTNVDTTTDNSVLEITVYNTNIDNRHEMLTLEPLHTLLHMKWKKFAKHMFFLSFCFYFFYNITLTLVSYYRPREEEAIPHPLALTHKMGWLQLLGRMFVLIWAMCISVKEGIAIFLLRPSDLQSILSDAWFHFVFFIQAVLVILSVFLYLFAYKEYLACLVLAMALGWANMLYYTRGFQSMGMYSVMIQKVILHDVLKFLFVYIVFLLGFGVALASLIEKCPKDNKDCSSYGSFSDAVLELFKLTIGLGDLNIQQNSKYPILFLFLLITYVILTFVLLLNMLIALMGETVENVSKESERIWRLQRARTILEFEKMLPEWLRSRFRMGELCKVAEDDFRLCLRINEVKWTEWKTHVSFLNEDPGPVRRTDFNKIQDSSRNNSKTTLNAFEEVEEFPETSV

Row | Structure (SMILES) | IC50 [1] | pIC50 [2] | IC50 [3] | pIC50 [4]
1 | CCc1ccccc1C(=O)c1ccc(C2CCN(C(=O)c3ncccc3Cl)C2)c(CO)c1 (stereo not drawn) [Compound 2-15, (4-(1-(3-chloropicolinoyl)pyrrolidin-3-yl)-3-(hydroxymethyl)phenyl)(2-ethylphenyl)methanone] | > 3200 nM | < 6.00 |  | 
2 | Cc1cccc(C(=O)N2CCC(c3ccc(Oc4ccccc4C(C)C)cc3CO)C2)n1 (stereo not drawn) [Compound 2-19, (3-(2-(hydroxymethyl)-4-(2-isopropylphenoxy)phenyl)pyrrolidin-1-yl)(6-methylpyridin-2-yl)methanone] | 191 nM | 7.00 to 8.00 |  | 
3 | CC(C)c1ccccc1Oc1ccc(C2CCN(C(=O)c3ccc(C(F)(F)F)cn3)C2)c(CO)c1 (stereo not drawn) [Compound 2-21, (3-(2-(hydroxymethyl)-4-(2-isopropylphenoxy)phenyl)pyrrolidin-1-yl)(5-(trifluoromethyl)pyridin-2-yl)methanone] | 97.1 nM | 7.00 to 8.00 |  | 
4 | COC(=O)c1cc(-c2ccccc2C(C)C)ccc1C1CCN(C(=O)c2ccc(F)cn2)C1 (stereo not drawn) [Compound 2-23] | 886 nM | 6.00 to 7.00 |  | 
5 | CCc1cncnc1Oc1ccc(C2CCN(C(=O)c3ccc(F)cn3)C2)c(CO)c1 (stereo not drawn) [Compound 2-24, (3-(4-(5-ethylpyrimidin-4-yloxy)-2-(hydroxymethyl)phenyl)pyrrolidin-1-yl)(5-fluoropyridin-2-yl)methanone] | > 3200 nM | < 6.00 |  | 
6 | CC(C)c1ccccc1Oc1ccc(C2CCN(C(=O)c3ncccc3Cl)C2)c(C(=O)O)c1 (stereo not drawn) [Compound 2-25, 2-(1-(3-chloropicolinoyl)pyrrolidin-3-yl)-5-(2-isopropylphenoxy)benzoic acid] | > 3200 nM | < 6.00 |  | 
7 | CC(C)c1ccccc1Oc1ccc(C2CCN(C(=O)c3ccccn3)C2)c(C(N)=O)c1 (stereo not drawn) [Compound 2-31, 5-(2-isopropylphenoxy)-2-(1-picolinoylpyrrolidin-3-yl)benzamide] | 1370 nM | < 6.00 |  | 
8 | CCc1ccccc1Oc1ccc(C2CCN(C(=O)c3ncccc3Cl)C2)c(C(N)=O)c1 (stereo not drawn) [Compound 2-37, 2-(1-(3-chloropicolinoyl)pyrrolidin-3-yl)-5-(2-ethylphenoxy)benzamide] | ~2190 nM | < 6.00 |  | 
9 | CCc1ccccc1Oc1ccc(C2CCN(C(=O)c3ccccn3)C2)c(C(N)=O)c1 (stereo not drawn) [Compound 2-38, 5-(2-ethylphenoxy)-2-(1-picolinoylpyrrolidin-3-yl)benzamide] | 2820 nM | < 6.00 |  | 
10 | CCc1ccccc1Oc1ccc(C2CCN(C(=O)c3ccc(Cl)cn3)C2)c(C(N)=O)c1 (stereo not drawn) [Compound 2-39, 2-(1-(5-chloropicolinoyl)pyrrolidin-3-yl)-5-(2-ethylphenoxy)benzamide] | 681 nM | 6.00 to 7.00 |  | 
11 | CCc1ccccc1Oc1ccc(C2CCN(C(=O)c3cccc(C)n3)C2)c(C(N)=O)c1 (stereo not drawn) [Compound 2-40, 5-(2-ethylphenoxy)-2-(1-(6-methylpicolinoyl)pyrrolidin-3-yl)benzamide] | 4900 nM | < 6.00 |  | 
12 | CC(C)c1ccccc1-c1ccc(C2CCN(C(=O)c3ncccc3Cl)C2)c(C(N)=O)c1 (stereo not drawn) [Compound 2-41] | 575 nM | 6.00 to 7.00 |  | 
13 | CCc1cccnc1Oc1ccc(C2CCN(C(=O)c3ccc(F)cn3)C2)c(CO)c1 (stereo not drawn) [Compound 2-44, (3-(4-(3-ethylpyridin-2-yloxy)-2-(hydroxymethyl)phenyl)pyrrolidin-1-yl)(5-fluoropyridin-2-yl)methanone] | > 3200 nM | < 6.00 |  | 
14 | CC(C)c1ccccc1-c1ccc(C2CCN(C(=O)c3ccccn3)C2)c(C(N)=O)c1 (stereo not drawn) [Compound 2-45] | 929 nM | 6.00 to 7.00 |  | 
15 | CC(C)c1ccccc1Oc1ccc(C2CCN(C(=O)c3ncccc3F)C2)c(C(N)=O)c1 (stereo not drawn) [Compound 2-46, 2-(1-(3-fluoropicolinoyl)pyrrolidin-3-yl)-5-(2-isopropylphenoxy)benzamide] | ~2250 nM | < 6.00 |  | 
16 | CCc1ccccc1-c1ccc(C2CCN(C(=O)c3ncccc3F)C2)c(CO)c1 (stereo not drawn) [Compound 2-54, (3-(2′-ethyl-3-(hydroxymethyl)biphenyl-4-yl)pyrrolidin-1-yl)(3-fluoropyridin-2-yl) methanone] | 91.3 nM | 7.00 to 8.00 |  | 
17 | O=C(c1ncccc1Cl)N1CCC(c2ccc(-c3ccccc3C3CC3)cc2CO)C1 (stereo not drawn) [Compound 2-55, (3-chloropyridin-2-yl)(3-(2′-cyclopropyl-3-(hydroxymethyl)biphenyl-4-yl)pyrrolidin-1-yl)methanone] | 88.4 nM | 7.00 to 8.00 |  | 
18 | CCOc1ccccc1-c1ccc(C2CCN(C(=O)c3ccc(F)cn3)C2)c(CO)c1 (stereo not drawn) [Compound 2-59, (3-(2′-ethoxy-3-(hydroxymethyl)biphenyl-4-yl)pyrrolidin-1-yl)(5-fluoropyridin-2-yl)methanone] | 62.1 nM | 7.00 to 8.00 |  | 

Row | Structure (SMILES) | IC50 [1] | pIC50 [2] | IC50 [3] | pIC50 [4]
19 | O=C(c1cc(Cl)ccn1)N1CCC(c2ccc(-c3ccccc3C3CC3)cc2CO)C1 (stereo not drawn) [Compound 2-60, (4-chloropyridin-2-yl)(3-(2′-cyclopropyl-3-(hydroxymethyl)biphenyl-4-yl)pyrrolidin-1-yl)methanone] | 26.5 nM | 7.00 to 8.00 |  | 
20 | COCc1ccccc1-c1ccc(C2CCN(C(=O)c3ccc(F)cn3)C2)c(CO)c1 (stereo not drawn) [Compound 2-61, (5-fluoropyridin-2-yl)(3-(3-(hydroxymethyl)-2′-(methoxymethyl)biphenyl-4-yl)pyrrolidin-1-yl)methanone] | 153 nM | 6.00 to 7.00 |  | 
21 | CCc1ccccc1-c1ccc(C2CCN(C(=O)c3cc(OC)ccn3)C2)c(CO)c1 (stereo not drawn) [Compound 2-63, (3-(2′-ethyl-3-(hydroxymethyl)biphenyl-4-yl)pyrrolidin-1-yl)(4-methoxypyridin-2-yl)methanone] | 235 nM | 6.00 to 7.00 |  | 
22 | COCc1ccccc1-c1ccc(C2CCN(C(=O)c3ccc(Cl)cn3)C2)c(CO)c1 (stereo not drawn) [Compound 2-65, (5-chloropyridin-2-yl)(3-(3-(hydroxymethyl)-2′-(methoxymethyl)biphenyl-4-yl)pyrrolidin-1-yl)methanone] | 97.7 nM | 7.00 to 8.00 |  | 
23 | CCc1nccnc1-c1ccc(C2CCN(C(=O)c3ccc(F)cn3)C2)c(CO)c1 (stereo not drawn) [Compound 2-68, (3-(4-(3-ethylpyrazin-2-yl)-2-(hydroxymethyl)phenyl)pyrrolidin-1-yl)(5-fluoropyridin-2-yl)methanone] | > 3200 nM | < 6.00 |  | 
24 | CC(O)c1cc(F)ccc1-c1ccc(C2CCN(C(=O)c3ccc(F)cn3)C2)c(CO)c1 (stereo not drawn) [Compound 2-70, (3-(4′-fluoro-2′-(1-hydroxyethyl)-3-(hydroxymethyl)biphenyl-4-yl)pyrrolidin-1-yl)(5-fluoropyridin-2-yl)methanone] | 2330 nM | < 6.00 |  | 
25 | CC(O)c1cc(F)ccc1-c1ccc(C2CCN(C(=O)c3ccc(Cl)cn3)C2)c(CO)c1 (stereo not drawn) [Compound 2-71, (5-chloropyridin-2-yl)(3-(4′-fluoro-2′-(1-hydroxyethyl)-3-(hydroxymethyl)biphenyl-4-yl)pyrrolidin-1-yl)methanone] | 860 nM | 6.00 to 7.00 | 572 nM | 6.00 to 7.00
26 | O=C(c1ncccc1F)N1CCC(c2ccc(-c3ccccc3C3CC3)cc2CO)C1 (stereo not drawn) [Compound 2-74] | 90.5 nM | 7.00 to 8.00 | 54.6 nM | 7.00 to 8.00
27 | COc1ccnc(C(=O)N2CCC(c3ccc(-c4ccccc4C4CC4)cc3CO)C2)c1 (stereo not drawn) [Compound 2-75, (3-(2′-cyclopropyl-3-(hydroxymethyl)biphenyl-4-yl)pyrrolidin-1-yl)(4-methoxypyridin-2-yl)methanone] | 215 nM | 6.00 to 7.00 |  | 
28 | COc1ccc(C(=O)N2CCC(c3ccc(-c4ccccc4C4CC4)cc3CO)C2)nc1 (stereo not drawn) [Compound 2-76, (3-(2′-cyclopropyl-3-(hydroxymethyl)biphenyl-4-yl)pyrrolidin-1-yl)(5-methoxypyridin-2-yl)methanone] | 71 nM | 7.00 to 8.00 |  | 
29 | O=C(c1ccc(C(F)(F)F)cn1)N1CCC(c2ccc(-c3ccccc3)nc2CO)C1 (stereo not drawn) [Compound 2-81] | 268 nM | 6.00 to 7.00 | 298 nM | 6.00 to 7.00
30 | O=C(c1ccc(Cl)cn1)N1CCC(c2ccc(-c3ccccc3)nc2CO)C1 (stereo not drawn) [Compound 2-82] | 836 nM | 6.00 to 7.00 |  | 
31 | Cc1ccccc1Oc1ccc(C2CCN(C(=O)c3ncccc3Cl)C2)c(CO)c1 (stereo not drawn) [Compound 2-84, (3-chloropyridin-2-yl)(3-(2-(hydroxymethyl)-4-(o-tolyloxy)phenyl)pyrrolidin-1-yl)methanone] | 932 nM |  |  | 
32 | O=C(c1ncccc1Cl)N1CCC(c2ccc(Oc3ccccc3)cc2CO)C1 (stereo not drawn) [Compound 2-85, (3-chloropyridin-2-yl)(3-(2-(hydroxymethyl)-4-phenoxyphenyl)pyrrolidin-1-yl)methanone] | 3310 nM |  |  | 
33 | CC(C)c1ccccc1Oc1ccc(C2CC(=O)N(Cc3ncccc3Cl)C2)c(CO)c1 (stereo not drawn) [Compound 2-88, 1-((3-chloropyridin-2-yl)methyl)-4-(2-(hydroxymethyl)-4-(2-isopropylphenoxy)phenyl)pyrrolidin-2-one] | 169 nM | 6.00 to 7.00 | 184 nM | 6.00 to 7.00
34 | Cc1cccnc1CN1CCC(c2ccc(Oc3ccccc3C(C)C)cc2CO)C1 (stereo not drawn) [Compound 2-89, (5-(2-isopropylphenoxy)-2-(1-((3-methylpyridin-2-yl)methyl)pyrrolidin-3-yl)phenyl)methanol hydrochloride] | 1230 nM | < 6.00 |  | 
35 | Cc1ccc(CN2CCC(c3ccc(Oc4ccccc4C(C)C)cc3CO)C2)nc1 (stereo not drawn) [Compound 2-90, (5-(2-isopropylphenoxy)-2-(1-((5-methylpyridin-2-yl)methyl)pyrrolidin-3-yl)phenyl)methanol hydrochloride] | 812 nM | 6.00 to 7.00 |  | 
36 | CC(C)c1ccccc1Oc1ccc(C2CCN(Cc3ccc(Cl)cn3)C2)c(CO)c1 (stereo not drawn) [Compound 2-91, (2-(1-((5-chloropyridin-2-yl)methyl)pyrrolidin-3-yl)-5-(2-isopropylphenoxy)phenyl)methanol] | 325 nM | 6.00 to 7.00 |  | 
